As a reminder, the IC50 is the concentration that gives 50% inhibition.

The results in this text go back to patent US20250179047A1, “5-[7-(3,4-DIHYDRO-1H-ISOQUINOLINE-2-CARBONYL)-1,2,3,4 TETRAHYDROISOQUINOLIN-6-YL]-1H-PYRROLE-3-CARBOXAMIDE DERIVATIVES, PHARMACEUTICAL COMPOSITIONS CONTAINING THEM AND THEIR USES AS PRO-APOPTOTIC AGENTS” (LES LABORATOIRES SERVIER, priority 2022, published 2025).

Test [1] has as its target BCL2 WT (Homo sapiens (Human), UniProt P10415). The experiment in a line: TR-FRET competitive binding assay, BCL2 WT. The protocol: (§1) The relative binding potency of each compound was determined in a competitive binding assay using time resolved-fluorescence resonance energy transfer (TR-FRET). The method utilised a fluorescein labelled peptide derived from PUMA (5Flu-Ahx-[…]-NH2 wherein Ahx means 6-hexanoic acid monomer and the amino acid sequence is referred to as SEQ ID:01) which binds to a terbium labelled BCL2 or BCLXL protein. The degree of binding or corresponding compound inhibition can be quantified by the TR-FRET signal between the terbium donor and fluorescein acceptor.
(§2) The human BCL2_wild-type (also named BCL2_wt), BCL2_G101V mutant and BCLXL_wild-type were E. coli expressed as a N-terminal Halo-fusion proteins and singly labelled with Terbium on the Halo protein to afford the following amino acid sequences:
(§3) wherein the BCL2(1-207) sequence corresponds to UniProtKB® primary accession number P10415 and the BCLXL(2-196) sequence corresponds to UniProtKB® primary accession number Q07817-1.
(§4) The assay was performed in a 40 μL volume in white 384-standard well plates (Corning #3574). An 11-point serial dilution of each compound was prepared in DMSO and transferred directly to plate followed by addition of fluorescein labelled peptide and lastly protein. Final assay conditions were 0.5 nM BCL2_wt, BCL2_G101V, BCL2_D103Y, BCL2_F104I, BCL2_D111A or BCLXL_wt, 2 or 20 nM fluorescein labelled peptide, 50 mM Hepes pH 7.5, 150 mM NaCl, 0.5 mM TCEP (Tris(2-carboxyethyl)phosphine), 0.05% Tween 20, 5% DMSO. The mixture was incubated for 2 hours at 23° C.
(§5) TR-FRET measurements were performed on a Biotek Synergy Neo plate reader. TR-FRET was measured by excitation of the Terbium-donor at 340 nm and subsequent (delay time 100 μs) measurement of terbium and fluorescein emission at 495 nm and 520 nm, respectively, over a collection time of 300 μs. The TR-FRET signal was calculated as the emission-ratio at 520 nm over 495 nm.
(§6) The TR-FRET ratio readout for test compounds was normalized against 0% inhibition controls wells and 100% inhibition control wells. Test compound potency (IC50) was estimated by nonlinear regression using the sigmoidal dose-response (variable slope) using Xlfit 4 (IDBS, Guildford, Surrey, UK, model 205). Were the IC50 could not be determined the % inhibition at the highest tested concentration is given.
(§7) y=(A+((B−A)/(1+((C/x)^D))))
(§8) where y is the normalized TR-TRET ratio measurement for a given concentration of test compound, x is the concentration of test compound, A is the estimated efficacy (% inhibition) at infinite compound dilution, and B is the maximal efficacy (% inhibition). C is the IC50 value and D is the Hill slope coefficient.
(§9) The K1 values were determined from the IC50 values according to Cer et al, Nucleic Acids Res, 2009, July 1; 37 (WebServer issue): W441-W445.
A general note: In TR-FRET formats the signal depends on donor and acceptor labels being close together.

Test [2] has as its target BCLXL WT (Homo sapiens (Human), UniProt Q07817). The experiment in a line: TR-FRET competitive binding assay, BCLXL WT. Particulars: for Ki: BCLXL WT, Ki determined from IC50, read-out: TR_FRET EKI BclxL; for TR_FRET EKI BCLxL/WT selectivty ratio: ratio Ki BCLxL / Ki BCL2 WT; for TR_FRET EKI BCLxL/WT selectivty: ratio of Ki BCLxL to BCL2 WT. The procedure: as §1, §2, §3, §4, §5, §6, §7, §8, §9

The target in test [3] is BCL2 D103Y (Homo sapiens, UniProt P10415, D103Y). The experiment in a line: TR-FRET competitive binding assay, BCL2 D103Y. Conditions: Ki determined from IC50, read-out: TR_FRET EKI_Bcl2 D103Y. The protocol:
as §1, §2, §3, §4, §5, §6, §7, §8, §9

Test [4] deals with BCL2 G101V (Homo sapiens, UniProt P10415, G101V). The experiment in a line: TR-FRET competitive binding assay, BCL2 G101V. Particulars: BCL2 G101V; Ki determined from IC50; read-out: TR_FRET EKI_Bcl2 G101V. The procedure: as §1, §2, §3, §4, §5, §6, §7, §8, §9
Test [5] relates to BCL2 G101V. The experiment in a line: TR-FRET competitive binding assay, BCL2 G101V. Also on record: species or system human. Particulars: for TR_FRET EKI G101V/WT selectivty ratio: ratio Ki BCL2 G101V / Ki BCL2 WT; for TR_FRET EKI G101V/WT selectivty: ratio of Ki BCL2 G101V to BCL2 WT. The protocol:
as §1, §2, §3, §4, §5, §6, §7, §8, §9

Test [6] has as its system KMS-12-PE Bcl-2 WT. The experiment in a line: In vitro cytotoxicity CellTiter-Glo 48 h, KMS-12-PE Bcl-2 WT. Type of test: cell-based. Particulars: Homo sapiens, KMS-12-PE, C50 = concentration needed to reach 50% of the cellular viability. The protocol: KMS-12-PE (ACC 606) were purchased from the Leibniz-Institute DSMZ (Braunschweig, Germany) and were grown at 37° C. in a humidified atmosphere with […] in media recommended by the suppliers. Lentiviral particles containing Bcl-2 wild type (also named “Bcl2 WT”) and Bcl-2 mutated on G101V (also named “Bcl2 G101V”) were cloned into pcLV-CMV-DEST-IRES-TagRFP. Lentiviral particles (1×106) were mixed with Polybrene at 8 µg/ml and transduced by spinoculation for 1 h at 32° C. and incubated overnight. After 8 days, TagRFP positive-cells were sorted by FACS. BCL2 expression was monitored by immunoblotting using anti-Flag and anti-BCL2 antibodies.
Cellular viability was monitored with the cell viability assay (CellTiter-Glo®) on KMS-12-PE WT and G101V cell lines. The CellTiter-Glo® (CTG) Luminescent Cell Viability Assay (from Promega) is a homogeneous method to determine the number of viable cells in culture based on quantitation of the ATP present, which signals the presence of metabolically active cells.
Dose response of compounds are performed with 10 mM stock solutions (DMSO), 11-points curve, in a 384-well compound plate. The assay plate is prepared by stamping 40 nL from compound dilution plate of all different concentrations (e.g. 10 mM to have final […] assay test) into a cell culture microplate, using Echo acoustic liquid handling (Labcyte, Beckman). 40 μl of cell solution is added and cells are incubated with compounds for 48 h at 37° C., 5% CO2. CTG was added to the cells (according to the manufacturer instructions) and luminescence intensity was recorded using the Pherastar plate reader (BMG).
This assay provides in vitro cellular potency of the tested Bcl-2 inhibitors, measuring the C50, defined as the concentration needed to reach 50% of the cellular viability.
For orientation: In ATP-based viability assays light output follows the ATP content of the culture.

[7] abbreviates: Ki determined from IC50, read-out: TR_FRET EKI_Bcl2 WT.
Where [8] appears, read: Ki determined from IC50, read-out: TR_FRET EKI_Bcl2.

Like-named read-outs stand apart in the source and are kept apart here.

BCLXL WT, sequence (Q07817 other isoform, or with tags, fused parts or gaps): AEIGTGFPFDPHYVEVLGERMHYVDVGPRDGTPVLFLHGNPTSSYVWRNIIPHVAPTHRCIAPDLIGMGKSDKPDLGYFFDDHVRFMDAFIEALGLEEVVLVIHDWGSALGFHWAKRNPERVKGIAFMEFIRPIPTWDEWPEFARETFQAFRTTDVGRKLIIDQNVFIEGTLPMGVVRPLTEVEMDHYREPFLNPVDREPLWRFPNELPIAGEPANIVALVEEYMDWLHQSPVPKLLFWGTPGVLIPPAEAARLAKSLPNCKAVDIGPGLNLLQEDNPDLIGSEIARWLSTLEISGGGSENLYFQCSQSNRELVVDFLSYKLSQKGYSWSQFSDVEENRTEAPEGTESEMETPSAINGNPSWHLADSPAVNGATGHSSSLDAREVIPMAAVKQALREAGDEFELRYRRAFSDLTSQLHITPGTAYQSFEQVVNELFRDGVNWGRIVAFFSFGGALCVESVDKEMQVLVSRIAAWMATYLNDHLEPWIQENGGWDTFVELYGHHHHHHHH

Regarding `Cc1c(N(C(=O)c2cc(-c3cc4c(cc3C(=O)N3Cc5ccccc5C[C@H]3C)CN(C(=O)C(F)(F)c3ccc(N5CCN(C)CC5)cc3)CC4)n(C)c2C)c2ccc(O)cc2)cc(C#N)n1C` [Example 26, N-(5-cyano-1,2-dimethylpyrrol-3-yl)-5-(2-{2,2-difluoro-2-[4-(4-methylpiperazin-1-yl)phenyl]acetyl}-7-{[(3R)-3-methyl-3,4-dihydro-1H-isoquinolin-2-yl]carbonyl}-3,4-dihydro-1H-isoquinolin-6-yl)-N-(4-hydroxyphenyl)-1,2-dimethylpyrrole-3-carboxamide], the Ki worked out at 1.1 nM in test [1] (setting [7]), 23.2 nM in test [2], 0.83 nM in test [3] and 5.3 nM in test [4]. Besides, the “TR_FRET EKI BCLxL/WT selectivty ratio” value in test [2] stood at 21.1. For the same molecule, the “TR_FRET EKI G101V/WT selectivty ratio” value in test [5] was 4.8.
On to `Cc1c(N(C(=O)c2cc(-c3cc4c(cc3C(=O)N3Cc5ccccc5C[C@H]3CN3CCCCC3)CN(C(=O)C(F)(F)c3ccc(OCCN5CCOCC5)cc3)CC4)n(C)c2C)c2ccc(O)cc2)cc(C#N)n1C` [Example 178, N-(5-cyano-1,2-dimethyl-pyrrol-3-yl)-5-[2-[2,2-difluoro-2-[4-(2-morpholinoethoxy)phenyl]acetyl]-7-[(3S)-3-(1-piperidylmethyl)-3,4-dihydro-1H-isoquinoline-2-carbonyl]-3,4-dihydro-1H-isoquinolin-6-yl]-N-(4-hydroxyphenyl)-1,2-dimethyl-pyrrole-3-carboxamide], for which the Ki in test [1] (setting [7]) turned out to be 0.09 nM; in test [2], 11.9 nM; in test [3], 0.16 nM; in test [4], 1.3 nM. The “TR_FRET EKI BCLxL/WT selectivty ratio” value in test [2] came out at 137.8. For the same molecule, the IC50 in test [6] amounted to 0.0109 µM. Besides, the “TR_FRET EKI G101V/WT selectivty ratio” value in test [5] is 15.3.
As to `Cc1c(C(=O)N(c2ccc(O)cc2)c2cc(C#N)n(C(F)F)c2C)cc(-c2cc3c(cc2C(=O)N2Cc4ccccc4C[C@H]2CN2CC4(CCC4)C2)CN(C(=O)Cc2ccc(OCCC4CCOCC4)cc2)CC3)n1C` [Example 180, 5-[7-[(3S)-3-(2-azaspiro[3.3]heptan-2-ylmethyl)-3,4-dihydro-1H-isoquinoline-2-carbonyl]-2-[2-[4-(2-tetrahydropyran-4-ylethoxy)phenyl]acetyl]-3,4-dihydro-1H-isoquinolin-6-yl]-N-[5-cyano-1-(difluoromethyl)-2-methyl-pyrrol-3-yl]-N-(4-hydroxyphenyl)-1,2-dimethyl-pyrrole-3-carboxamide], the Ki in test [1] (setting [7]) came to 0.07 nM; in test [2] it was 17.2 nM; in test [3], 0.15 nM; in test [4], 0.3 nM. In test [2], the “TR_FRET EKI BCLxL/WT selectivty ratio” value is 252.5. In addition, half-maximal inhibition in test [6] (IC50) was put at 0.0078 µM. In addition, the “TR_FRET EKI G101V/WT selectivty ratio” value in test [5] turned out to be 4.5.
Regarding `COc1ccc(N(C(=O)c2cc(-c3cc4c(cc3C(=O)N3Cc5ccccc5C[C@H]3CN3CC5(CCC5)C3)CN(C(=O)Cc3ccc(OCCN5CCOCC5)cc3F)CC4)n(C)c2C)c2ccc(O)cc2)cc1C#N` [Example 181, 5-[7-[(3S)-3-(2-azaspiro[3.3]heptan-2-ylmethyl)-3,4-dihydro-1H-isoquinoline-2-carbonyl]-2-[2-[2-fluoro-4-(2-morpholinoethoxy)phenyl]acetyl]-3,4-dihydro-1H-isoquinolin-6-yl]-N-(3-cyano-4-methoxy-phenyl)-N-(4-hydroxyphenyl)-1,2-dimethyl-pyrrole-3-carboxamide], the Ki in test [1] (setting [7]) is 0.04 nM; in test [2], 9 nM; in test [3], 0.09 nM; in test [4], 0.4 nM. Further, the “TR_FRET EKI BCLxL/WT selectivty ratio” value in test [2] is 248.7. Moreover, in test [6], it took 0.0194 µM to reach half-maximal inhibition (IC50). In test [5], the “TR_FRET EKI G101V/WT selectivty ratio” value is on record as 9.9.
Consider `Cc1cc(OCCN2CCOCC2)c(F)cc1CC(=O)N1CCc2cc(-c3cc(C(=O)N(c4ccc(O)cc4)c4cc(C#N)n(C)c4C)c(C)n3C)c(C(=O)N3Cc4ccccc4C[C@H]3CN3CCCCC3)cc2C1` [Example 223, N-(5-cyano-1,2-dimethyl-pyrrol-3-yl)-5-[2-[2-[5-fluoro-2-methyl-4-(2-morpholinoethoxy)phenyl]acetyl]-7-[(3S)-3-(1-piperidylmethyl)-3,4-dihydro-1H-isoquinoline-2-carbonyl]-3,4-dihydro-1H-isoquinolin-6-yl]-N-(4-hydroxyphenyl)-1,2-dimethyl-pyrrole-3-carboxamide], for which the Ki was determined as 0.18 nM in test [1] (setting [7]), 4.3 nM in test [2], 0.26 nM in test [3] and 1.6 nM in test [4]. In addition, the “TR_FRET EKI BCLxL/WT selectivty ratio” value in test [2] came out at 24.6. Besides, the “TR_FRET EKI G101V/WT selectivty ratio” value in test [5] stood at 9.3.
For the molecule `Cc1cc(OCCN2CCOCC2)c(F)cc1CC(=O)N1CCc2cc(-c3cc(C(=O)N(c4ccc(O)cc4)c4cc(C#N)n(C)c4C)c(C)n3C)c(C(=O)N3Cc4ccccc4C[C@H]3C)cc2C1` [Example 224, N-(5-cyano-1,2-dimethyl-pyrrol-3-yl)-5-[2-[2-[5-fluoro-2-methyl-4-(2-morpholinoethoxy)phenyl]acetyl]-7-[(3R)-3-methyl-3,4-dihydro-1H-isoquinoline-2-carbonyl]-3,4-dihydro-1H-isoquinolin-6-yl]-N-(4-hydroxyphenyl)-1,2-dimethyl-pyrrole-3-carboxamide], the Ki in test [1] (setting [8]) turned out to be 0.073 nM; in test [2], 1.3 nM; in test [3], 0.18 nM; in test [4], 0.8 nM. Besides, the “TR_FRET EKI BCLxL/WT selectivty” value in test [2] turned out to be 17.7. Also, the “TR_FRET EKI G101V/WT selectivty” value in test [5] was determined as 10.5.
As for `Cc1cc(OCCN2CCOCC2)c(F)cc1CC(=O)N1CCc2cc(-c3cc(C(=O)N(c4ccccc4)c4cnn(C)c4)c(C)n3C)c(C(=O)N3Cc4ccccc4C[C@H]3C)cc2C1` [Example 225, 5-[2-[2-[5-fluoro-2-methyl-4-(2-morpholinoethoxy)phenyl]acetyl]-7-[(3R)-3-methyl-3,4-dihydro-1H-isoquinoline-2-carbonyl]-3,4-dihydro-1H-isoquinolin-6-yl]-1,2-dimethyl-N-(1-methylpyrazol-4-yl)-N-phenyl-pyrrole-3-carboxamide], the Ki in test [1] (setting [8]) is 0.11 nM; in test [2], 23.6 nM; in test [3], 0.14 nM; in test [4], 25.6 nM. The “TR_FRET EKI BCLxL/WT selectivty” value in test [2] was found to be 214.3. Besides, the “TR_FRET EKI G101V/WT selectivty” value in test [5] came to 233.0.
